According to US12673946B2, “Pyrimidin-4(3H)-one derivatives as TRPV4 antagonists” (RaQualia Pharma Inc., priority 2020, dated 2026):

Target: T1, human TRPV4 (Homo sapiens, UniProt Q9HBA0)
T1 construct: host or cells: tetracycline-inducible Flp-In T-REx 293 cells
Test: Hypotonicity-induced Ca2+ influx (Fluo-4, FDSS)
Format: cell-based
Procedure, shortened: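 Flp-In T-REx 293 cells with tetracycline-induced human TRPV4, loaded with Fluo-4 for 60 min at 25 °C. Compound added 5 min before hypotonic mannitol/CaCl2 solution. Ca2+ signal recorded for 4.5 min on FDSS.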

[1] = Flp-In T-REx 293 cells expressing human TRPV4, examples listed under heading 'Human IC50<50 nM'
[2] = Flp-In T-REx 293 cells stably expressing human TRPV4, compounds listed by potency bin (<10 nM Tables 96-1/96-2, <3 nM Table 97)

T1 sequence (Q9HBA0 whole entry): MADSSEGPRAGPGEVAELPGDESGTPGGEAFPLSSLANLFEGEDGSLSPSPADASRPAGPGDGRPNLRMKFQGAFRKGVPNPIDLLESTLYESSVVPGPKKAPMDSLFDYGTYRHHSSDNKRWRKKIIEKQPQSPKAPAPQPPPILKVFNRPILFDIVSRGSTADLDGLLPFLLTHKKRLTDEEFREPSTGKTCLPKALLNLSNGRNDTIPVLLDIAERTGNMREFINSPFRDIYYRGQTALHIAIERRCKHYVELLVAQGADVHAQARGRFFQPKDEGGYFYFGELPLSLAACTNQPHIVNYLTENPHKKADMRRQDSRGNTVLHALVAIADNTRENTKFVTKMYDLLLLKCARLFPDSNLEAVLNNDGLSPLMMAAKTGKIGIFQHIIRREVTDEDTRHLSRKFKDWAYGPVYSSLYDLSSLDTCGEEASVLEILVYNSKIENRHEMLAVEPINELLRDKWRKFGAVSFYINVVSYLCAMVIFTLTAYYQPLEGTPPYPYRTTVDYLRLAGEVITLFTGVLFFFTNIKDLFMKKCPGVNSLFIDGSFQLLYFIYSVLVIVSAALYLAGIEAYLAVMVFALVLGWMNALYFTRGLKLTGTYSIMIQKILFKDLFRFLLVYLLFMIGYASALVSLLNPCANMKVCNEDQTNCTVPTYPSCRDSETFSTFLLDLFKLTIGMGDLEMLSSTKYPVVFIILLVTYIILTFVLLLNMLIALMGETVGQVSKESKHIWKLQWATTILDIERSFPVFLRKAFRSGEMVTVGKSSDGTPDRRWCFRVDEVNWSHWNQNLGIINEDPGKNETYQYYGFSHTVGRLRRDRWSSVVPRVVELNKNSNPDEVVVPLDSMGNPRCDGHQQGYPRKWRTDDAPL

Row | IC50 [1] [µM] | IC50 [2] [µM] | SMILES
1 | < 0.05 | < 0.01 | O=C(Cc1cccc(-c2cccc(C(F)(F)F)c2)c1)N1CCCc2nc(C3(c4cccc(-c5csc6ccccc56)c4)CC3)[nH]c(=O)c2C1 [17-125]
2 | < 0.05 | < 0.003 | O=C([C@H](O)c1cccc(C(F)(F)F)c1)N1CCCc2nc(C3(c4cncc(-c5ccccc5)c4)CC3)[nH]c(=O)c2C1 [43-1]
3 | < 0.05 | < 0.01 | Cc1cc(Cl)cc(-c2cccc(C(O)C(=O)N3CCc4nc(C5(c6ccccc6)CC5)[nH]c(=O)c4C3)c2)c1 (stereo not shown) [44-16]
4 | < 0.05 | < 0.01 | O=C(C(O)c1cccc(-c2cnc3ccccc3c2)c1)N1CCc2nc(C3(c4cccc(Cl)c4)CC3)[nH]c(=O)c2C1 (stereo not shown) [14-3]
5 | < 0.05 |  | O=C([C@H](O)c1cccc(-c2ccc(OCc3ccccn3)cc2)c1)N1CCc2nc(C3(c4ccccc4)CC3)[nH]c(=O)c2C1 [44-87]
6 | < 0.05 |  | O=C([C@H](O)c1cccc(Cl)c1)N1CCc2nc(C3(c4cccc(Cl)c4)CC3)[nH]c(=O)c2C1 [3-50]
7 | < 0.05 |  | O=C([C@H](O)c1cccc(-c2cccc(F)c2)c1)N1CCc2nc(C3(c4ccccc4)CC3)[nH]c(=O)c2C1 [44-70]
8 | < 0.05 |  | CN(C(=O)c1csc(C2(c3nc4c(c(=O)[nH]3)CN(C(=O)[C@H](O)c3cccc(C(F)(F)F)c3)CCC4)CC2)c1)C(C)(C)C [59-19]
9 | < 0.05 | < 0.01 | CC(C)c1cccc(C2(c3nc4c(c(=O)[nH]3)CN(C(=O)C(F)(F)c3cccc(Cl)c3)CCC4)CC2)c1 [20-8]
10 | < 0.05 |  | O=C([C@H](O)c1cccc(C(F)(F)F)c1)N1CCCc2nc(C3(c4cnc(-c5ccccc5)o4)CC3)[nH]c(=O)c2C1 [18-31]
11 | < 0.05 | < 0.01 | CC(C)c1cccc(-c2cccc([C@@H](O)C(=O)N3CCCc4nc(C5(c6cccc(-c7csc8ccccc78)c6)CC5)[nH]c(=O)c4C3)c2)c1 [52-13]
12 | < 0.05 |  | Cc1ccc(F)cc1-c1cccc(C(O)C(=O)N2CCc3nc(C4(c5ccccc5)CC4)[nH]c(=O)c3C2)c1 (stereo not shown) [44-39]
13 | < 0.05 |  | O=C(C(O)c1cccc(SC(F)(F)F)c1)N1CCc2nc(C3(c4ccccc4)CC3)[nH]c(=O)c2C1 (stereo not shown) [14-25]
14 | < 0.05 | < 0.003 | O=C([C@H](O)c1cccc(-c2ccc(Cl)cc2)c1)N1CCCc2nc(C3(c4ccccc4)CC3)[nH]c(=O)c2C1 [49-18]
15 | < 0.05 | < 0.01 | O=C(Cc1cccc(-c2cccc(C(F)(F)F)c2)c1)N1CCCc2nc(C3(c4cccc(C5CCCCC5)c4)CC3)[nH]c(=O)c2C1 [31-14]
16 | < 0.05 | < 0.01 | O=C(Cc1cccc(-c2cccc(OC(F)(F)F)c2)c1)N1CCc2nc(C3(c4cccc(Cl)c4)CC3)[nH]c(=O)c2C1 [45-12]
17 | < 0.05 | < 0.003 | O=C([C@H](O)c1cccc(Cl)c1)N1CCCc2nc(C3(c4cccc(Oc5ccccc5)c4)CC3)[nH]c(=O)c2C1 [17-73]
18 | < 0.05 | < 0.01 | CC(C)(C)c1cccc(-c2cccc(C(O)C(=O)N3CCc4nc(C5(c6ccccc6)CC5)[nH]c(=O)c4C3)c2)c1 (stereo not shown) [44-7]
19 | < 0.05 |  | O=C(Cc1cccc(-c2coc3ccccc23)c1)N1CCc2nc(C3(c4cccc(Cl)c4)CC3)[nH]c(=O)c2C1 [14-120]

Row | IC50 [1] [µM] | IC50 [2] [µM] | SMILES
20 | < 0.05 | < 0.003 | CC(C)c1cncc(C2(c3nc4c(c(=O)[nH]3)CN(C(=O)[C@H](O)c3cccc(-c5cccc(F)c5)c3)CCC4)CC2)c1 [55-7]
21 | < 0.05 | < 0.003 | O=C([C@H](O)c1cccc(Cl)c1)N1CCCc2nc(C3(c4cccc(C5CCCC5)c4)CC3)[nH]c(=O)c2C1 [29-3]
22 | < 0.05 | < 0.01 | O=C(Cc1ccc(COc2ccccc2)cc1)N1CC=C(c2cccc(C3(c4nc5c(c(=O)[nH]4)CN(C(=O)[C@H](O)c4cccc(C(F)(F)F)c4)CCC5)CC3)c2)CC1 [42-79]
23 | < 0.05 | < 0.01 | O=C(N1CCc2nc(C3(c4cncc(-c5ccccc5)c4)CC3)[nH]c(=O)c2C1)C(F)(F)c1cccc(C(F)(F)F)c1 [22-6]
24 | < 0.05 | < 0.01 | O=C(Cc1cccc(-c2coc3ccccc23)c1)N1CCCc2nc(C3(c4ccccc4)CC3)[nH]c(=O)c2C1 [17-137]
25 | < 0.05 |  | O=C([C@H](O)c1cccc(Cl)c1)N1CCCc2nc(C3(c4cccc(F)c4)CC3)[nH]c(=O)c2C1 [17-57]
26 | < 0.05 | < 0.003 | N#Cc1cc(Cl)cc(-c2cccc([C@@H](O)C(=O)N3CCc4nc(C5(c6cccc(Cl)c6)CC5)[nH]c(=O)c4C3)c2)c1 [45-5]
27 | < 0.05 | < 0.003 | CC(C)c1cncc(C2(c3nc4c(c(=O)[nH]3)CN(C(=O)C(F)(F)c3cccc(C(F)(F)F)c3)CCC4)CC2)c1 [22-1]
28 | < 0.05 | < 0.01 | CC(C)Oc1cccc(-c2cccc([C@@H](O)C(=O)N3CCCc4nc(C5(c6cccc(Cl)c6)CC5)[nH]c(=O)c4C3)c2)c1 [50-13]
29 | < 0.05 | < 0.01 | O=C([C@H](O)c1cccc(C(F)(F)F)c1)N1CCCc2nc(C3(c4cccc(-c5nc6ccccc6s5)c4)CC3)[nH]c(=O)c2C1 [17-97]
30 | < 0.05 |  | N#Cc1ccc(-c2cccc(CC(=O)N3CCCc4nc(C5(c6ccccc6)CC5)[nH]c(=O)c4C3)c2)cc1 [17-131]
31 | < 0.05 |  | O=C(C(O)c1cccc(SC(F)(F)F)c1)N1CCc2nc(C3(c4cccc(Cl)c4)CC3)[nH]c(=O)c2C1 (stereo not shown) [14-18]
32 | < 0.05 |  | CC(C)(C)c1ccc(-c2cccc(CC(=O)N3CCCc4nc(C5(c6ccccc6)CC5)[nH]c(=O)c4C3)c2)cc1 [17-132]
33 | < 0.05 | < 0.01 | O=C([C@H](O)c1cccc(Cl)c1)N1CCCc2nc(C3(c4cccc(-c5cccnc5)c4)CC3)[nH]c(=O)c2C1 [40-3]
34 | < 0.05 | < 0.003 | O=C([C@H](O)c1cccc(-c2ccc(F)c(Cl)c2)c1)N1CCc2nc(C3(c4cccc(Cl)c4)CC3)[nH]c(=O)c2C1 [45-1]
35 | < 0.05 |  | O=C(C(O)c1cccc(Cl)c1F)N1CCc2nc(C3(c4ccccc4)CC3)[nH]c(=O)c2C1 (single isomer, unassigned) [3-69]
36 | < 0.05 | < 0.003 | O=C([C@H](O)c1cccc(-c2ccc(F)c(Cl)c2)c1)N1CCc2nc(C3(c4ccccc4)CC3)[nH]c(=O)c2C1 [44-82]
37 | < 0.05 | < 0.01 | O=C([C@H](O)c1cccc(C(F)(F)F)c1)N1CCCc2nc(C3(c4cccc(-c5ccc(CN6CCc7c(Cl)cccc7C6)cc5)c4)CC3)[nH]c(=O)c2C1 [42-96]
38 | < 0.05 | < 0.01 | O=C(CN1CCc2ccccc21)N1CC=C(c2cccc(C3(c4nc5c(c(=O)[nH]4)CN(C(=O)[C@H](O)c4cccc(C(F)(F)F)c4)CCC5)CC3)c2)CC1 [42-74]

Row | IC50 [1] [µM] | IC50 [2] [µM] | SMILES
39 | < 0.05 |  | CC(C(=O)N1CCCc2nc(C3(c4ccccc4)CC3)[nH]c(=O)c2C1)c1cccc(C(F)(F)F)c1 (stereo not shown) [17-46]
40 | < 0.05 | < 0.01 | O=C([C@H](O)c1cccc(C(F)(F)F)c1)N1CCCc2nc(C3(c4cc(CCc5ccccc5)cs4)CC3)[nH]c(=O)c2C1 [30-9]
41 | < 0.05 | < 0.003 | O=C([C@H](O)c1cccc(C(F)(F)F)c1)N1CCCc2nc(C3(c4cccc(-c5ccc(C(F)(F)F)nc5)c4)CC3)[nH]c(=O)c2C1 [42-46]
42 | < 0.05 | < 0.003 | CC(C)(C)c1cccc(-c2cccc([C@@H](O)C(=O)N3CCc4nc(C5(c6ccccc6)CC5)[nH]c(=O)c4C3)c2)c1 [44-74]
43 | < 0.05 | < 0.003 | O=C([C@H](O)c1cccc(C(F)(F)F)c1)N1CCCc2nc(C3(c4cccc(-c5cnsc5)c4)CC3)[nH]c(=O)c2C1 [42-1]
44 | < 0.05 | < 0.01 | CN(Cc1ccccc1)C(=O)c1csc(C2(c3nc4c(c(=O)[nH]3)CN(C(=O)[C@H](O)c3cccc(C(F)(F)F)c3)CCC4)CC2)c1 [59-3]
45 | < 0.05 |  | O=C([C@H](O)c1cccc(Cl)c1)N1CCc2nc(C3(c4cc(C5CCOCC5)cs4)CC3)[nH]c(=O)c2C1 [15-15]
46 | < 0.05 |  | O=C([C@H](O)c1cccc(Cl)c1)N1CCc2nc(C3(c4ccccc4)CC3)[nH]c(=O)c2C1 [2-33, (R)-6-(2-(3-chlorophenyl)-2-hydroxyacetyl)-2-(1-phenylcyclopropyl)-5,6,7,8-tetrahydropyrido[4,3-d]pyrimidin-4(3H)-one]
47 | < 0.05 | < 0.01 | O=C([C@H](O)c1cccc(C(F)(F)F)c1)N1CCCc2nc(C3(c4cccc(-c5cnn(C(F)F)c5)c4)CC3)[nH]c(=O)c2C1 [42-21]
48 | < 0.05 |  | O=C(C(O)c1cccc(-c2ccccc2F)c1)N1CCc2nc(C3(c4ccccc4)CC3)[nH]c(=O)c2C1 (stereo not shown) [44-43]
49 | < 0.05 |  | O=C(C(O)c1cccc(-c2cc(F)cc(F)c2)c1)N1CCc2nc(C3(c4ccccc4)CC3)[nH]c(=O)c2C1 (stereo not shown) [44-45]
50 | < 0.05 | < 0.01 | O=C([C@H](O)c1cccc(C(F)(F)F)c1)N1CCCc2nc(C3(c4cccc(OCc5ccccc5)c4)CC3)[nH]c(=O)c2C1 [17-90]
51 | < 0.05 | < 0.003 | O=C([C@H](O)c1cccc(-c2cccc(C(F)(F)F)n2)c1)N1CCc2nc(C3(c4ccccc4)CC3)[nH]c(=O)c2C1 [44-78]
52 | < 0.05 | < 0.01 | O=C(Cc1cccc(SC(F)(F)F)c1)N1CCCc2nc(C3(c4ccccc4)CC3)[nH]c(=O)c2C1 [17-26]
53 | < 0.05 | < 0.003 | O=C([C@H](O)c1cccc(-c2ccc3c(c2)OC(F)(F)O3)c1)N1CCCc2nc(C3(c4cccc(Cl)c4)CC3)[nH]c(=O)c2C1 [50-15]
54 | < 0.05 | < 0.01 | O=C(N1CCCc2nc(C3(c4cccc(-c5csc6ccccc56)c4)CC3)[nH]c(=O)c2C1)C(F)(F)c1cccc(C(F)(F)F)c1 [20-15]
55 | < 0.05 | < 0.01 | CC(C)Oc1cccc(-c2cccc(C(F)(F)C(=O)N3CCCc4nc(C5(c6ccccc6)CC5)[nH]c(=O)c4C3)c2)c1 [58-3]
56 | < 0.05 | < 0.01 | O=C(C(O)c1cccc(-c2ccc(Cl)cc2)c1)N1CCCc2nc(C3(c4cccc(F)c4)CC3)[nH]c(=O)c2C1 (stereo not shown) [17-34]
